Where two headings read alike, the source gives them in different places.
Experiments:
dogs [1] = assay: two-bowl preference test, Example 4 (Canine w/d, 2.4% test flavor); format: in vivo, dog; details: dry wt. of kibble, test flavor 2.4%
Description: The experiment comprised mixing various amounts of 2,5-dimethyl-4-hydroxy-3(2H)-furanone with a commercial liquid palatant enhancer as a carrier to form a test flavor. Each of the test flavors (2.4%, dry weight basis) was topically applied to a dry, commercial dog food (Canine w/d from Hill's Pet Nutrition, Inc.) after application of a commercial dry palatant enhancer in choice white grease (0.6%, dry weight basis) to form a test composition. […] The control compositions were prepared by topically applying the commercial liquid palatant enhancer (2.4% dry weight basis) to the dry, commercial dog food (Canine w/d) after application of a commercial dry palatant enhancer in choice white grease (0.6%, dry weight basis). Palatability was determined by comparing the test composition and the control composition in a standard two-bowl preference test over two days with 20 dogs as described in Example 1.

dogs [2] = details: for Intake Ratio / Preference (%) control composition / Preference (%) test composition / Status (vs. control): dry wt. of kibble, dogs, Hill's Canine Maintenance Adult
Description: The experiment comprised mixing various amounts of 2,5-dimethyl-4-hydroxy-3(2H)-furanone (0.2% to 1.2%) with a commercial liquid palatant enhancer as a carrier to form a flavored palatant (hereinafter test flavor). The test flavor (2.0%, dry weight basis) was topically applied to a dry, commercial dog food (Hill's Canine Maintenance Adult, a Science Diet for adult dogs commercially available from Hill's Pet Nutrition, Inc., Topeka, Kans.) after sequential application of soy bean oil (1.2%, dry weight basis) and choice white grease (7.9%, dry weight basis) to form a test composition.
Each test composition was compared against a control composition in a palatability test. The control compositions were prepared by topically applying the commercial liquid palatant enhance (2.0% dry weight basis) to the dry, commercial dog food (Hill's Canine Maintenance Adult) after sequential application of soy bean oil (1.2%, dry weight basis) and choice white grease (7.9%, dry weight basis). Palatability was determined by comparing the test composition and the control composition in a standard two-bowl preference test over two days with 20 dogs.

cats = assay: two-bowl preference test, Example 5 (Feline w/d); format: in vivo, cat; details: dry wt. of kibble
Description: Finally, a commercial dry palatant enhancer (1.4% dry weight basis) was topically applied to the dry kibbles to complete the test composition.

[3] = Exp. No. 6, second set of experiments, 87.1 ppm
[4] = Exp. No. 7, second set of experiments, 130.5 ppm
[5] = Exp. No. 8, second set of experiments, 174.0 ppm
[6] = Exp. No. 9, second set of experiments, 217.5 ppm
[7] = Exp. No. 10, second set of experiments, 282.8 ppm
[8] = Exp. No. 7, second set of experiments, 5.0 ppm
[9] = Exp. No. 8, second set of experiments, 10.0 ppm
[10] = Exp. No. 9, second set of experiments, 20.0 ppm
[11] = Exp. No. 10, second set of experiments, 30.0 ppm
[12] = Exp. No. 11, second set of experiments, 40.0 ppm
[13] = Exp. No. 12, second set of experiments, 50.0 ppm

Question: What does the source list for `CC1=C(O)C(=O)C(C)O1` (stereo not shown) [2,5-dimethyl-4-hydroxy-3(2H)-furanone]?
Answer: Intake Ratio (dogs [1]; Exp. No. 1, 87.1 ppm): 0.6939; Preference (%) control composition (dogs [1]; Exp. No. 1, 87.1 ppm): 16.0%; Preference (%) test composition (dogs [1]; Exp. No. 1, 87.1 ppm): 76.0%; Status (vs. control) (dogs [1]; Exp. No. 1, 87.1 ppm): Win; Intake Ratio (dogs [1]; Exp. No. 2, 130.5 ppm): 0.6616; Preference (%) control composition (dogs [1]; Exp. No. 2, 130.5 ppm): 28.0%; Preference (%) test composition (dogs [1]; Exp. No. 2, 130.5 ppm): 72.0%; Status (vs. control) (dogs [1]; Exp. No. 2, 130.5 ppm): Win; Intake Ratio (dogs [1]; Exp. No. 3, 174.0 ppm): 0.6947; Preference (%) control composition (dogs [1]; Exp. No. 3, 174.0 ppm): 24.0%; Preference (%) test composition (dogs [1]; Exp. No. 3, 174.0 ppm): 76.0%; Status (vs. control) (dogs [1]; Exp. No. 3, 174.0 ppm): Win; Intake Ratio (dogs [1]; Exp. No. 4, 217.5 ppm): 0.7773; Preference (%) control composition (dogs [1]; Exp. No. 4, 217.5 ppm): 8.0%; Preference (%) test composition (dogs [1]; Exp. No. 4, 217.5 ppm): 92.0%; Status (vs. control) (dogs [1]; Exp. No. 4, 217.5 ppm): Win; Intake Ratio (dogs [1]; Exp. No. 5, 282.8 ppm): 0.8079; Preference (%) control composition (dogs [1]; Exp. No. 5, 282.8 ppm): 8.3%; Preference (%) test composition (dogs [1]; Exp. No. 5, 282.8 ppm): 87.5%; Status (vs. control) (dogs [1]; Exp. No. 5, 282.8 ppm): Win; Intake Ratio (dogs [1]; [3]): 0.6058; Preference (%) control composition (dogs [1]; [3]): 40.0%; Preference (%) test composition (dogs [1]; [3]): 60.0%; Status (vs. control) (dogs [1]; [3]): Win; Intake Ratio (dogs [1]; [4]): 0.6857; Preference (%) control composition (dogs [1]; [4]): 24.0%; Preference (%) test composition (dogs [1]; [4]): 76.0%; Status (vs. control) (dogs [1]; [4]): Win; Intake Ratio (dogs [1]; [5]): 0.5568; Preference (%) control composition (dogs [1]; [5]): 40.0%; Preference (%) test composition (dogs [1]; [5]): 56.0%; Status (vs. control) (dogs [1]; [5]): Parity; Intake Ratio (dogs [1]; [6]): 0.5453; Preference (%) control composition (dogs [1]; [6]): 40.0%; Preference (%) test composition (dogs [1]; [6]): 60.0%; Status (vs. control) (dogs [1]; [6]): Parity; Intake Ratio (dogs [1]; [7]): 0.7429; Preference (%) control composition (dogs [1]; [7]): 16.0%; Preference (%) test composition (dogs [1]; [7]): 84.0%; Status (vs. control) (dogs [1]; [7]): Win; Intake Ratio (dogs [2]; Exp. No. 2, 43.5 ppm): 0.5705; Preference (%) control composition (dogs [2]; Exp. No. 2, 43.5 ppm): 27.8%; Preference (%) test composition (dogs [2]; Exp. No. 2, 43.5 ppm): 61.1%; Status (vs. control) (dogs [2]; Exp. No. 2, 43.5 ppm): Parity; Intake Ratio (dogs [2]; Exp. No. 3, 87.1 ppm): 0.7361; Preference (%) control composition (dogs [2]; Exp. No. 3, 87.1 ppm): 10.0%; Preference (%) test composition (dogs [2]; Exp. No. 3, 87.1 ppm): 90.0%; Status (vs. control) (dogs [2]; Exp. No. 3, 87.1 ppm): Win; Intake Ratio (dogs [2]; Exp. No. 4, 130.5 ppm): 0.5673; Preference (%) control composition (dogs [2]; Exp. No. 4, 130.5 ppm): 25.0%; Preference (%) test composition (dogs [2]; Exp. No. 4, 130.5 ppm): 50.0%; Status (vs. control) (dogs [2]; Exp. No. 4, 130.5 ppm): Win; Intake Ratio (dogs [2]; Exp. No. 5, 217.5 ppm): 0.6575; Preference (%) control composition (dogs [2]; Exp. No. 5, 217.5 ppm): 40.0%; Preference (%) test composition (dogs [2]; Exp. No. 5, 217.5 ppm): 60.0%; Status (vs. control) (dogs [2]; Exp. No. 5, 217.5 ppm): Win; Intake Ratio (dogs [2]; Exp. No. 6, 217.5 ppm): 0.8206; Preference (%) control composition (dogs [2]; Exp. No. 6, 217.5 ppm): 5.0%; Preference (%) test composition (dogs [2]; Exp. No. 6, 217.5 ppm): 95.0%; Status (vs. control) (dogs [2]; Exp. No. 6, 217.5 ppm): Win; intolerance of the test palatant following intake (dogs [2]; dog, in vivo): No evidence of any intolerance; Intake Ratio (cats; Exp. No. 1, 5.0 ppm): 0.7676; Preference (%) control composition (cats; Exp. No. 1, 5.0 ppm): 8.0%; Preference (%) test composition (cats; Exp. No. 1, 5.0 ppm): 92.0%; Status (vs. control) (cats; Exp. No. 1, 5.0 ppm): Win; Intake Ratio (cats; Exp. No. 2, 10.0 ppm): 0.8135; Preference (%) control composition (cats; Exp. No. 2, 10.0 ppm): 8.0%; Preference (%) test composition (cats; Exp. No. 2, 10.0 ppm): 88.0%; Status (vs. control) (cats; Exp. No. 2, 10.0 ppm): Win; Intake Ratio (cats; Exp. No. 3, 20.0 ppm): 0.8151; Preference (%) control composition (cats; Exp. No. 3, 20.0 ppm): 12.0%; Preference (%) test composition (cats; Exp. No. 3, 20.0 ppm): 88.0%; Status (vs. control) (cats; Exp. No. 3, 20.0 ppm): Win; Intake Ratio (cats; Exp. No. 4, 30.0 ppm): 0.7546; Preference (%) control composition (cats; Exp. No. 4, 30.0 ppm): 20.0%; Preference (%) test composition (cats; Exp. No. 4, 30.0 ppm): 80.0%; Status (vs. control) (cats; Exp. No. 4, 30.0 ppm): Win; Intake Ratio (cats; Exp. No. 5, 40.0 ppm): 0.7626; Preference (%) control composition (cats; Exp. No. 5, 40.0 ppm): 12.0%; Preference (%) test composition (cats; Exp. No. 5, 40.0 ppm): 88.0%; Status (vs. control) (cats; Exp. No. 5, 40.0 ppm): Win; Intake Ratio (cats; Exp. No. 6, 50.0 ppm): 0.8505; Preference (%) control composition (cats; Exp. No. 6, 50.0 ppm): 8.0%; Preference (%) test composition (cats; Exp. No. 6, 50.0 ppm): 92.0%; Status (vs. control) (cats; Exp. No. 6, 50.0 ppm): Win; Intake Ratio (cats; [8]): 0.9385; Preference (%) control composition (cats; [8]): 0.0%; Preference (%) test composition (cats; [8]): 100.0%; Status (vs. control) (cats; [8]): Win; Intake Ratio (cats; [9]): 0.7990; Preference (%) control composition (cats; [9]): 12.0%; Preference (%) test composition (cats; [9]): 84.0%; Status (vs. control) (cats; [9]): Win; Intake Ratio (cats; [10]): 0.8128; Preference (%) control composition (cats; [10]): 8.0%; Preference (%) test composition (cats; [10]): 92.0%; Status (vs. control) (cats; [10]): Win; Intake Ratio (cats; [11]): 0.8912; Preference (%) control composition (cats; [11]): 4.0%; Preference (%) test composition (cats; [11]): 92.0%; Status (vs. control) (cats; [11]): Win; Intake Ratio (cats; [12]): 0.8012; Preference (%) control composition (cats; [12]): 16.0%; Preference (%) test composition (cats; [12]): 80.0%; Status (vs. control) (cats; [12]): Win; Intake Ratio (cats; [13]): 0.8339; Preference (%) control composition (cats; [13]): 12.5%; Preference (%) test composition (cats; [13]): 87.5%; Status (vs. control) (cats; [13]): Win
